Assay [1] deals with Sigma non-opioid intracellular receptor 1 (Homo sapiens, UniProt Q99720). Kind of assay: DRUGMATRIX: Sigma1 radioligand binding (ligand: [3H] Haloperidol). The class given is cell membranes, Jurkat, Membrane. The conditions noted are these: jurkat; Not Active = under 50% inhibition at 10 µM.
The nature of assay [2]: DRUGMATRIX: Calcium Channel Type L, Phenylalkylamine radioligand binding (ligand: [3H] (-)-Desmethoxyverapamil (D-888)). Format: cell membranes, Rattus norvegicus, Wistar, Brain, Membrane. The note with it: Not Active = under 50% inhibition at 10 µM.
Assay [3] concerns the target T1, C-X-C chemokine receptor type 2 (Homo sapiens, UniProt P25025). Further: in other assays of this panel Not Active means under 50% inhibition at 10 µM.
T1 sequence (P25025 whole entry): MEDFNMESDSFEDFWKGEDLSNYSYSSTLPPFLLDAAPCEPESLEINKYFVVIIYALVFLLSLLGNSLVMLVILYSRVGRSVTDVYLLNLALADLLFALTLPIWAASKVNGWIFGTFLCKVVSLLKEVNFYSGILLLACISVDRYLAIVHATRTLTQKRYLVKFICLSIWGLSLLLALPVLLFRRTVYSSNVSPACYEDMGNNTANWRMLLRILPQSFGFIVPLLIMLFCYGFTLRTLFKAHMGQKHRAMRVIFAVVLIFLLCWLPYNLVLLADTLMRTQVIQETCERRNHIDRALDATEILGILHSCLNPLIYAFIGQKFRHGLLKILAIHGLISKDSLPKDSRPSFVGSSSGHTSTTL
The class given is cell membranes, CHO-K1, Membrane. The note with it: cho-k1.

A short description of assay [4]: DRUGMATRIX: Nicotinic Acetylcholine radioligand binding (ligand: [125I] Epibatidine). The note with it: imr-32, Not Active = under 50% inhibition at 10 µM. The class given is cell membranes, Membrane.
The nature of assay [5]: DRUGMATRIX: Phorbol Ester radioligand binding (ligand: [3H] PDBu). The class given is cell membranes, Mus musculus, ICR, Brain, Membrane. The conditions noted are these: Not Active = under 50% inhibition at 10 µM.
Assay [6] has as its target Tyrosine-protein kinase Fyn (Homo sapiens, UniProt P06241). Briefly: biochemical. The class given is cell-based, Insect cells. The conditions noted are these: insect cells.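 Further: enzymatic inhibition of Fyn kinase activity measured with Poly(Glu:Tyr) as the phosphorylation substrate; in other assays of this panel Not Active means under 50% inhibition at 10 µM.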

Drawing on ChEMBL document CHEMBL1909046, “DrugMatrix in vitro pharmacology data”, this text covers IC50 and Ki for 21 compounds.

Tyrosine-protein kinase Fyn, sequence (P06241 whole entry): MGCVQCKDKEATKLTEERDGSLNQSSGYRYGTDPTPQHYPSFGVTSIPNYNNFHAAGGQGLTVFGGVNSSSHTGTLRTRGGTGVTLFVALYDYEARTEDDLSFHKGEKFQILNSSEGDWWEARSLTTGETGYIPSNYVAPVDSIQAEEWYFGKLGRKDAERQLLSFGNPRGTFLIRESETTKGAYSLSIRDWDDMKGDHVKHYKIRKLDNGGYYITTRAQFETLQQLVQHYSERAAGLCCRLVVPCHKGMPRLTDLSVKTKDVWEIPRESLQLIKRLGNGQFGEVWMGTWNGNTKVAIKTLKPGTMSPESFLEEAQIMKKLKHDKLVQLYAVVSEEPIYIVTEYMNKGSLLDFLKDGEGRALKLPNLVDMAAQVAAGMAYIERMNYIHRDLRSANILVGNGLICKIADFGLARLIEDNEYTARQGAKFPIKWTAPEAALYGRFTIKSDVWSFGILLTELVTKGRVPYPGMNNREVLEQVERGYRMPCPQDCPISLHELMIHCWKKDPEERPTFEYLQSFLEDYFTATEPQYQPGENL
Sigma non-opioid intracellular receptor 1, sequence (Q99720 whole entry): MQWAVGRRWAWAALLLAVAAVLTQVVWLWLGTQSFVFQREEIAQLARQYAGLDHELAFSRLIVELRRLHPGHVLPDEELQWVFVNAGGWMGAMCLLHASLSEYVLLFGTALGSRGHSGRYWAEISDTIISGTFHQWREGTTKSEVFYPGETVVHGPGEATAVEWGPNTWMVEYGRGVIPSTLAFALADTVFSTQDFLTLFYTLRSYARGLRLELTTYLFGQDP

Take `C[N+](C)(C)CCOC(N)=O.[Cl-]` [CARBACHOL]: the concentration for half-maximal inhibition (IC50) result in assay [1] was “Not Active”; in assay [2], “Not Active”; in assay [3], “Not Active”; in assay [4] (read-out: IC50) it was 1000 nM; in assay [5], “Not Active”; in assay [6], “Not Active”. Also, the Ki result in assay [2] is “Not Active”; in assay [4] (read-out: Ki), 334 nM; in assay [5], “Not Active”.
Turning to `C[C@]12CC[C@@H](O)C[C@@H]1CC[C@@H]1[C@@H]2CC[C@]2(C)C(=O)CC[C@@H]12` [ANDROSTERONE], the IC50 entry in assay [1], in assay [2], in assay [3], in assay [4], in assay [5] and in assay [6] was “Not Active” in each case. The Ki result in assay [2], in assay [4] and in assay [5] was “Not Active” in each case.
As for `C[C@H](C(=O)O)c1ccc2oc(-c3ccc(F)cc3)nc2c1` [FLUNOXAPROFEN], the IC50 result in assay [1], in assay [2], in assay [3], in assay [4], in assay [5] and in assay [6] was “Not Active” throughout. The Ki entry in assay [2], in assay [4] and in assay [5] was “Not Active” in each case.
Turning to COPPER(II) OXIDE, the IC50 entry in assay [1], in assay [2], in assay [3], in assay [4], in assay [5] and in assay [6] was “Not Active” in each case. Besides, the inhibition constant Ki result in assay [1], in assay [2], in assay [3], in assay [4], in assay [5] and in assay [6] was “Not Active” throughout.
With `NC(=O)CN1CCCC1=O`, the IC50 entry in assay [1], in assay [2], in assay [3], in assay [4], in assay [5] and in assay [6] was “Not Active” throughout. In addition, the Ki result in assay [2], in assay [4] and in assay [5] was “Not Active” throughout.
As for `O=C1c2ccccc2C(=O)C1c1ccccc1` [PHENINDIONE], the IC50 result in assay [1], in assay [2], in assay [3], in assay [4], in assay [5] and in assay [6] was “Not Active” in each case. In addition, the Ki entry in assay [2], in assay [4] and in assay [5] was “Not Active” throughout.
For `CCN1C[C@]2(COC)[C@H](O)C[C@H](OC)[C@@]34[C@@H]5C[C@@]6(O)[C@H](OC(=O)c7ccccc7)[C@@H]5[C@@](OC(C)=O)([C@@H]([C@H](OC)[C@H]23)[C@@H]14)[C@@H](O)[C@@H]6OC` [ACONITINE], the half-maximal inhibitory concentration (IC50) result in assay [1], in assay [2], in assay [3], in assay [4], in assay [5] and in assay [6] was “Not Active” throughout. The Ki entry in assay [2], in assay [4] and in assay [5] was “Not Active” each time.
In the case of `O=C(NCCN1CCOCC1)c1ccc(Cl)cc1` [MOCLOBEMIDE], the IC50 entry in assay [1], in assay [2], in assay [3], in assay [4], in assay [5] and in assay [6] was “Not Active” in each case. Moreover, the inhibition constant (Ki) result in assay [2], in assay [4] and in assay [5] was “Not Active” in each case.
Turning to `O=C(O)COC(=O)Cc1ccccc1Nc1c(Cl)cccc1Cl` [ACECLOFENAC], the concentration for half-maximal inhibition (IC50) result in assay [1], in assay [2], in assay [3], in assay [4], in assay [5] and in assay [6] was “Not Active” throughout. Also, the Ki entry in assay [2], in assay [4] and in assay [5] was “Not Active” each time.
As for `COc1cc(/C=C/C(=O)O)ccc1O` [FERULATE], the 50% inhibitory concentration (IC50) result in assay [1], in assay [2], in assay [3], in assay [4], in assay [5] and in assay [6] was “Not Active” each time. The Ki result in assay [2], in assay [4] and in assay [5] was “Not Active” each time.
In the case of `O=c1[nH]c2ccccc2c2ccccc12`, the IC50 entry in assay [1], in assay [2], in assay [3], in assay [4], in assay [5] and in assay [6] was “Not Active” throughout. Also, the Ki entry in assay [2], in assay [4] and in assay [5] was “Not Active” throughout.
On to `COc1ccc(C[C@H](N)C(=O)N[C@H]2[C@@H](O)[C@H](n3cnc4c(N(C)C)ncnc43)O[C@@H]2CO)cc1` [PUROMYCIN], for which the half-inhibitory concentration (IC50) result in assay [1], in assay [2], in assay [3], in assay [4], in assay [5] and in assay [6] was “Not Active” in each case. The inhibitory constant (Ki) result in assay [2], in assay [4] and in assay [5] was “Not Active” throughout.
As for `NC(=O)NC(=O)Cc1ccccc1` [PHENACEMIDE], the concentration for half-maximal inhibition (IC50) result in assay [1], in assay [2], in assay [3], in assay [4], in assay [5] and in assay [6] was “Not Active” in each case. Also, the inhibitory constant (Ki) result in assay [2], in assay [4] and in assay [5] was “Not Active” throughout.
As to `COc1ccccc1OCCNCC(O)COc1cccc2[nH]c3ccccc3c12` (stereo unspecified) [CARVEDILOL], the IC50 result in assay [1] was “Not Active”; in assay [2] (read-out: IC50) it was 389 nM; in assay [3], “Not Active”; in assay [4], “Not Active”; in assay [5], “Not Active”; in assay [6] it was “Not Active”. Also, the figures for the inhibitory constant (Ki) in assay [2] (read-out: Ki), in assay [4] and in assay [5] were 378 nM, “Not Active” and “Not Active”, respectively.
For `CC(N)Cc1c[nH]c2ccc(OCc3cccs3)cc12` (stereo unspecified) [BW-723C86], the IC50 entry in assay [1] is “Not Active”; in assay [2] (read-out: IC50), 4340 nM; in assay [3] it was “Not Active”; in assay [4], “Not Active”; in assay [5], “Not Active”; in assay [6], “Not Active”. Further, the values for the inhibition constant (Ki) in assay [2] (read-out: Ki), in assay [4] and in assay [5] were 4220 nM, “Not Active” and “Not Active”, respectively.
On to `c1ccc2c(c1)Nc1ccccc1S2` [PHENOTHIAZINE], for which the IC50 entry in assay [1], in assay [2], in assay [3], in assay [4], in assay [5] and in assay [6] was “Not Active” in each case. In addition, the Ki result in assay [2], in assay [4] and in assay [5] was “Not Active” in each case.
Turning to POVIDONE, the IC50 result in assay [1], in assay [2], in assay [3], in assay [4], in assay [5] and in assay [6] was “Not Active” each time. In addition, the Ki result in assay [1], in assay [2], in assay [3], in assay [4], in assay [5] and in assay [6] was “Not Active” each time.
`CCO` [ALCOHOL]: the 50% inhibitory concentration (IC50) entry in assay [1], in assay [2], in assay [3], in assay [4], in assay [5] and in assay [6] was “Not Active” throughout. The Ki entry in assay [2], in assay [4] and in assay [5] was “Not Active” each time.
For the compound `Clc1cc(Cl)c(OCC#CI)cc1Cl` [HALOPROGIN], the 50% inhibitory concentration (IC50) entry in assay [1], in assay [2], in assay [3], in assay [4], in assay [5] and in assay [6] was “Not Active” throughout. Besides, the Ki result in assay [2], in assay [4] and in assay [5] was “Not Active” each time.
Take CHROMIC CHLORIDE: the half-inhibitory concentration (IC50) entry in assay [1], in assay [2], in assay [3], in assay [4] and in assay [5] was “Not Active” in each case. The Ki entry in assay [1], in assay [2], in assay [3], in assay [4] and in assay [5] was “Not Active” throughout.
As to `Nc1ccc(Cc2ccc(N)cc2)cc1`, the IC50 result in assay [1], in assay [2], in assay [3], in assay [4], in assay [5] and in assay [6] was “Not Active” throughout. Besides, the inhibitory constant (Ki) result in assay [2], in assay [4] and in assay [5] was “Not Active” in each case.
